Experimental data taken from ChEMBL document CHEMBL1156076, “Design and efficient synthesis of novel arylthiourea derivatives as potent hepatitis C virus inhibitors” (Bioorg Med Chem Lett, 2009).

Legend:
[1] = Cytotoxicity against human HuH7 cells; type: cell-based, Huh-7
[2] = Selectivity index, ratio of CC50 for human HuH7 cells to EC50 for HCV 1b; set-up: species or system Huh-7
Hepatitis C virus = experiment: Antiviral activity against HCV 1b infected in human HuH7 cells assessed as inhibition of viral sub-genomic replication by EG(delta-4AB)SEAP reporter protein assay; type: functional, organism-based, Hepacivirus hominis; details: genotype 1b, Huh-7

SMILES | EC50 (Hepatitis C virus) | CC50 [1] | Ratio CC50/EC50 [2]
NC(=S)Nc1cccc(OCCCCCc2ccccc2)c1 | 48 nM | 22 µM | 458
NC(=S)Nc1cccc(OCCCCCN2CCN(c3ccc(Cl)cc3)C2=O)c1 | 280 nM | 39 µM | 139
NC(=S)Nc1cccc(OCCCCCN2CCN(c3ccc(C4CCCCC4)cc3)C2=O)c1 | 290 nM | 12 µM | 41
NC(=S)Nc1cccc(OCCCCCN2CCCCN(c3ccc(Cl)cc3)C2=O)c1 | 250 nM | 13 µM | 52
NC(=S)Nc1cccc(OCCCCCN2CCN(c3ccc(Oc4ccccc4)cc3)C2=O)c1 | 27000 nM | > 50 µM | >2
NC(=S)Nc1cccc(OCCCCCN2CCCN(c3ccc(Cl)cc3)C2=O)c1 | 1500 nM | 15 µM | 10
NC(=S)Nc1cccc(OCCCCCN2CCN(c3ccccc3-c3ccccc3)C2=O)c1 | 396 nM | 12 µM | 30
NC(=S)Nc1cccc(OCCCCCCCCNC(=S)Nc2ccc(N3CCOCC3)cc2)c1 | 316 nM | > 50 µM | >158
Cc1c(NC(N)=S)cccc1OCCCCCNC(=S)Nc1cccc2ccccc12 | > 50000 nM | > 50 µM | >1
NC(=S)Nc1cccc(OCCCCCN2CCN(c3ccccc3-c3ccccc3)C2=S)c1 | 234 nM | > 50 µM | >214
Cc1ccc(OCCCCCNC(=S)Nc2cccc3ccccc23)cc1NC(N)=S | 1030 nM | > 50 µM | >49
NC(=S)Nc1cccc(OCCCCCCCCNC(=S)Nc2ccc(C3CCCCC3)cc2)c1 | 71 nM | > 50 µM | >704
NC(=S)Nc1cccc(OCCCCCCCNC(=S)Nc2cc(Cl)cc(Cl)c2)c1 | 88 nM | 20 µM | 227
NC(=S)Nc1cccc(OCCCCCNC(=S)Nc2cc(Cl)cc(Cl)c2)c1 | 177 nM | 18 µM | 102
NC(=S)Nc1cccc(OCCCCCCCCNC(=S)Nc2cc(Cl)cc(Cl)c2)c1 | 34 nM | 12 µM | 353
NC(=S)Nc1cccc(OCCCCCCCCNC(=S)Nc2ccc3c(c2)c2ccccc2n3CCc2ccccc2)c1 | 33 nM | > 50 µM | >1515
NC(=S)Nc1cccc(OCCCCCNC(=S)Nc2ccc(Cl)cc2)c1 | 510 nM | > 50 µM | >98
NC(=S)Nc1cccc(OCCCCCCNC(=S)Nc2cc(Cl)cc(Cl)c2)c1 | 122 nM | 21 µM | 172
NC(=S)Nc1cccc(OCCCCCNC(=O)Nc2cccc3ccccc23)c1 | 1390 nM | > 50 µM | >36
NC(=S)Nc1cccc(OCCCCCNC(=S)Nc2cccc3ccccc23)c1 | 450 nM | > 50 µM | >111
NC(=S)Nc1cccc(OCCCCCN2CCN(c3ccc(Cl)cc3)C2=S)c1 | 260 nM | > 50 µM | >192
NC(=S)Nc1cccc(OCCCCCN2CCN(c3cccnc3)C2=O)c1 | > 50000 nM | > 50 µM | >1
NC(=S)Nc1cccc(OCCCCCN2CCN(c3ccc(C4CCCCC4)cc3)C2=S)c1 | 167 nM | > 50 µM | >299
CC(C)(C)c1ccc(NC(=S)NCCCCCCCCOc2cccc(NC(N)=S)c2)cc1 | 60 nM | 17 µM | 283
NC(=S)Nc1cccc(OCCCCCN2CCN(c3ccc(Cl)c(Cl)c3)C2=O)c1 | 210 nM | 13 µM | 62
NC(=S)Nc1cccc(OCCCCCN2CCN(c3cccc4ccccc34)C2=O)c1 | 570 nM | 15 µM | 26
NC(=S)Nc1cccc(OCCCCCN2CCN(c3ccc(Cl)c(Cl)c3)C2=S)c1 | 200 nM | > 50 µM | >250
NC(=S)Nc1cccc(OCCCCCCCCNC(=S)Nc2ccc3c(c2)CCC3)c1 | 80 nM | 34 µM | 425

Further lines, with some results ahead:

EC50 (Hepatitis C virus) | SMILES | CC50 [1] | Ratio CC50/EC50 [2]
96 nM | NC(=S)Nc1cccc(OCCCCCCCCNC(=S)Nc2ccc3c(c2)c2ccccc2n3-c2ccccc2)c1 | > 50 µM | >521
62 nM | NC(=S)Nc1cccc(OCCCCCCCCNC(=S)Nc2ccc(Cl)cc2)c1 | 18 µM | 290
47 nM | NC(=S)Nc1cccc(OCCCCCCCCNC(=S)Nc2ccc(Br)cc2)c1 | 18 µM | 383
53 nM | NC(=S)Nc1cccc(OCCCCCCCCNC(=S)Nc2ccc3c(c2)C(=O)c2ccccc2-3)c1 | > 50 µM | >943
80 nM | Cn1c2ccccc2c2cc(NC(=S)NCCCCCCCCOc3cccc(NC(N)=S)c3)ccc21 | > 50 µM | >625
45 nM | CCCCn1c2ccccc2c2cc(NC(=S)NCCCCCCCCOc3cccc(NC(N)=S)c3)ccc21 | > 50 µM | >1111
54 nM | CCn1c2ccccc2c2cc(NC(=S)NCCCCCCCCOc3cccc(NC(N)=S)c3)ccc21 | > 50 µM | >926
118 nM | NC(=S)Nc1cccc(OCCCCCCCCNC(=S)Nc2ccc3c(c2)Cc2ccccc2-3)c1 | 25 µM | 212
48 nM | CCCn1c2ccccc2c2cc(NC(=S)NCCCCCCCCOc3cccc(NC(N)=S)c3)ccc21 | > 50 µM | >1042
93 nM | NC(=S)Nc1cccc(OCCCCCCCCNC(=S)Nc2cccc(Br)c2)c1 | 20 µM | 215
36 nM | CCCCCCn1c2ccccc2c2cc(NC(=S)NCCCCCCCCOc3cccc(NC(N)=S)c3)ccc21 | > 50 µM | >1389
31 nM | Cc1ccc(-n2c3ccccc3c3cc(NC(=S)NCCCCCCCCOc4cccc(NC(N)=S)c4)ccc32)cc1 | > 50 µM | >1612
36 nM | NC(=S)Nc1cccc(OCCCCCCCCNC(=S)Nc2ccc3c(c2)c2ccccc2n3Cc2ccccc2)c1 | > 50 µM | >1389
44 nM | Cc1cc(C)cc(-n2c3ccccc3c3cc(NC(=S)NCCCCCCCCOc4cccc(NC(N)=S)c4)ccc32)c1 | > 50 µM | >1136
148 nM | NC(=S)Nc1cccc(OCCCCCCCCNC(=S)Nc2ccc3[nH]ccc3c2)c1 | 18 µM | 122
109 nM | NC(=S)Nc1cccc(OCCCCCCCCNC(=S)Nc2ccccc2)c1 | > 50 µM | >459
131 nM | NC(=S)Nc1cccc(OCCCCCCCCNC(=S)Nc2ccccc2Br)c1 | 36 µM | 275
89 nM | NC(=S)Nc1cccc(OCCCCCCCCNC(=S)Nc2ccc3[nH]c4ccccc4c3c2)c1 | > 50 µM | >562
42 nM | CCCCCn1c2ccccc2c2cc(NC(=S)NCCCCCCCCOc3cccc(NC(N)=S)c3)ccc21 | > 50 µM | >1190
